biological target: His-Tagged hOGA (human O-GlcNAcase) (Homo sapiens (Human), UniProt O60502); experiment: Human O-GlcNAcase enzyme inhibition assay (OGA enzyme inhibition assay); assay type: biochemical; details: His-Tagged hOGA 20 nM, FL-GlcNAc 10 μM, 60 min at room temperature, pH 6.5; activity classes
Description: Example B01: Human O-GlcNAcase Enzyme Inhibition Assay
5 μl of the appropriate concentration of a solution of inhibitor in McIlvaine's Buffer (pH 6.5) in 2% DMSO (for a dose response curve calculation) is added into each well of a 384-well plate (Greiner, 781900). Then, 20 nM of His-Tagged hOGA and 10 μM of FL-GlcNAc (Fluorescein mono-beta-D-(2-deoxy-2-N-acetyl) glucopyranoside; Marker Gene Technologies Inc, M1485) were added to the 384-well plate for a final volume of 20 μl. After incubation for 60 min at room temperature, the reaction was terminated by the addition of 10 μL of stop buffer (200 mM glycine, pH 10.75). The level of fluorescence (Δexc 485 nm; (Δemm 520 nm) was read on a PHERAstar machine. The amount of fluorescence measured was plotted against the concentration of inhibitor to produce a sigmoidal dose response curve to calculate an IC50. All individual data was corrected by subtraction of the background (Thiamet 3 uM=100% inhibition) whilst 0.5% DMSO was considered as the control value (no inhibition).

His-Tagged hOGA (human O-GlcNAcase), sequence (O60502 whole entry): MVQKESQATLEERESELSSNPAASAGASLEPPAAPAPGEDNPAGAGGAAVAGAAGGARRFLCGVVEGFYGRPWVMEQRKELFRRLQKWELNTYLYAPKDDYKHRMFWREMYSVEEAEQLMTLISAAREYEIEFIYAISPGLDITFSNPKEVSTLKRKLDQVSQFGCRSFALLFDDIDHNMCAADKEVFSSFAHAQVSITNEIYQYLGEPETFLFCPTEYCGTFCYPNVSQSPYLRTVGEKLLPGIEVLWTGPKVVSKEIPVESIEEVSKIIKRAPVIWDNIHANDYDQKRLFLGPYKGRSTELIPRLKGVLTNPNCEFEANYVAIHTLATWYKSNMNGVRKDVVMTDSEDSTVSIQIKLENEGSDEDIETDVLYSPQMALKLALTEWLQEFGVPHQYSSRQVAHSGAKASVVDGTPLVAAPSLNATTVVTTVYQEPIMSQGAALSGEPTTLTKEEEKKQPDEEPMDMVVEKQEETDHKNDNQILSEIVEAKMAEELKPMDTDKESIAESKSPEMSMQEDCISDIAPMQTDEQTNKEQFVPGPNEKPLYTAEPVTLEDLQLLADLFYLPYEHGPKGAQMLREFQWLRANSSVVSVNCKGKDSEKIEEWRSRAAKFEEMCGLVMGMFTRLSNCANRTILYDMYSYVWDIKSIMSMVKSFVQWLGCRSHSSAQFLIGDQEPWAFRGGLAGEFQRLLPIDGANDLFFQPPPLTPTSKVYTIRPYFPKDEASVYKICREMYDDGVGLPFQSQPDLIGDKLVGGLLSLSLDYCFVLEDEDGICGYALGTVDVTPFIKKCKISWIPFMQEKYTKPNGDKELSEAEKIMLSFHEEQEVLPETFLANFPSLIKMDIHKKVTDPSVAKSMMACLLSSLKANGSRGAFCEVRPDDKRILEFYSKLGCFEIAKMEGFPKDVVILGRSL

SMILES | IC50 [nM]
CC(c1ccc2scnc2c1)N1CCc2ccccc2CC1 (single isomer, unassigned) [Example 22] | 200 to 1000
COc1ccc2c(c1)CCN(C(C)c1ccc3c(c1)OCC3)CC2 (stereo not shown) [Example 7, 3-(1-(2,3-dihydrobenzofuran-6-yl)ethyl)-7-methoxy-2,3,4,5-tetrahydro-1H-benzo[d]azepine] | < 50
CC(c1ccc2scnc2c1)N1CCc2ccc(S(C)(=N)=O)cc2CC1 (single isomer, unassigned) [Example 115] | 1000 to 10000
CC(c1ccc2scnc2c1)N1CCc2ccc(OC(F)F)cc2CC1 (racemic) [Example 24, 5-(1-(7-(difluoromethoxy)-1,2,4,5-tetrahydro-3H-benzo[d]azepin-3-yl)ethyl)benzo[d]thiazole] | < 50
